Experimental data taken from US12286439B2, “Inhibitors of ERK nuclear translocation” (Yeda Research and Development Co. Ltd., priority 2018, dated 2025).

Key:
Assay type in all cases: cell-based
[1] = tested on: A2185 and A2352 cells; experiment: Viability assay (methylene blue), two BRAF melanoma cells; details: for viability at 10 µM / cell viability (percentage of DMSO control): active below 40%, moderate below 80%, not active above 80%; for viability at 10 µM: read-out: cell viability (percentage of DMSO control); for activity in SAR summary of FIGS. 10A-10C (cell viability): comparison with Compound Z2 or named analog; for cell viability at lower concentration: 3 μM; for cell viability, dose response: 0.1-10 μM
Method: FIGS. 10A, 10B and 10C present data from screening the 20 analogs of Compound Z2 (“C-compounds”) showing three particularly active anti-proliferative compounds. […] A2185 and A2352 cells were grown in 1% FCS containing DMSO (0.1%), EPE peptide, Compound Z56, Compound Z2 or C-compounds (10 μM), for 72 hours. Compounds were categorized according to activity: (1) active, below 40%; (2) moderate activity, below 80%; (3) not active, above 80%. […] A2185 and A2352 cells were grown in 1% FCS containing DMSO (0.1%), EPE peptide (10 μM), compounds Z56, Z2 or selected C-compounds (3 μM), for 72 hours. Empty squares/circles represent individual data points of proliferation. Full squares/circles indicate average proliferation of 2 independent experiments in triplicate±SE. Bold horizontal line defines arbitrary activity threshold of activity below 40%. FIG. 10C presents dose response curves of active C-compounds compounds. A2185 and A2352 were grown in 1% FCS media containing DMSO (0.1%), EPE peptide, Z56, Z2 (10 μM) or compounds C17, C22 and C23 (0.1-10 μM), for 72 hours. […] Cell viability was measured by staining with methylene blue. Data presented as percentage of DMSO control. Bar graphs represent average of 2 independent experiments done in triplicates ±SE.
FIG. 13 presents a graph showing the effect of analogs of Compound C17 (“D-compounds”) on cell viability at a concentration of 10 μM. A2185 and A2352 cells were grown in 1% FCS media containing DMSO (0.1%) EPE peptide (10 μM), Compounds Z56, Z2, C17 (10 μM) as controls, and D-Compounds (10 μM), for 72 hours. Viable cells were measured by staining with methylene blue. Bar graphs represent average of 2 independent experiments done in triplicates. Data presented as percentage of DMSO proliferation ±standard error.
FIG. 14 presents a graph showing the effect of analogs of Compound C17 (“D-compounds”) on cell viability at a concentration of 1 μM. A2185 and A2352 cells were grown in 1% FCS media containing DMSO (0.1%), EPE peptide (10 μM), Compounds Z56, Z2 and C17 (1 and 10 μM) as controls, and D-compounds (1 μM), for 72 hours. Viable cells were measured by staining with methylene blue. Bar graphs represent average of 2 independent experiments done in triplicates. Data presented as percentage of DMSO proliferation ±standard error.
(§1) Cells were seeded at low confluence into 24, 48 or 96-well plates in complete medium. After 24 hours, medium was replaced by 1% FCS (fetal calf serum) containing appropriate treatments. Fresh medium containing the same agents was replaced every day. After 72 or 96 hours of treatment, cells were fixed with 4% formaldehyde overnight at 23° C., washed once with 0.1 M borate buffer (pH 8.5) for 10 minutes, and stained with of 1% methylene blue in 0.1 M borate buffer (pH 8.5) for 30 minutes. Excess stain was washed out with distilled water. Color was extracted by adding 0.1 M HCl (3 hours, 23° C.), and absorbance measured at 595 nm in an ELISA reader. For time course experiments, attached cells were fixed and measured at 0, 24, 48, 72 and 96 hours. For dose-response experiments, cells were treated with indicated concentrations of reagent, fixed and stained after 72 hours as above.
The ability of the selected compounds to reduce cell viability of two BRAF melanoma cells (A2185 and A2352) was evaluated. Initially, all compounds were assayed at a relatively high concentration of 10 μM.

[2] = tested on: ERK1/2 nuclear translocation; experiment: Determination of ERK1/2 localization by fluorescence microscopy after TPA stimulation; details: 10 μM, 2 hours; TPA 100 nM, 15 minutes; A2185 and A2352 cells
Method: Determination of Protein Localization by Fluorescence Microscopy:
Indicated cells were seeded on coverslips (coated with 0.001% w/v poly-L-lysine or not, depending on the cell line) at 50% confluency. After the indicated treatment, cells were fixed in 4% paraformaldehyde/PBS for 20 minutes on an ice surface, permeabilized with 0.1% Triton X-100/PBS for 5 minutes at 23° C., then blocked in 2% BSA/PBS for 30 minutes at 23° C. The fixed cells were sequentially incubated with appropriate antibodies (in 2% BSA/PBS, 1.5 hour), washed 3 times with PBS^−/−, and followed by incubation with either Cy-2-conjugated or rhodamine-conjugated secondary antibodies (1:200) and with DAPI ([…]; 1:100) in 2% BSA/PBS for 45 minutes. Slides were analyzed and photographed by a fluorescence microscope (Olympus BX51, ×40). Background correction, and contrast adjustment of raw data images were performed using Photoshop (Adobe, CA, USA).
The effect of Z56 was compared with that of the inhibitory effect of EPE peptide on nuclear translocation of ERK1/2.
The effects of the compounds on ERK1/2 nuclear translocation were evaluated in three cell lines (HeLa cells and two melanoma cell lines, A2185 and A2352), by treating the cells with each compound for two hours, and determining nuclear translocation using fluorescent anti-ERK antibodies, according to procedures described hereinabove.

[3] = tested on: Panc-1, AsPC-1, CFPAC-1, MIA PaCa-2, Capan-1, Capan-2 and BxPC-3 pancreatic cancer cells; experiment: Viability assay (methylene blue), pancreatic cancer cell lines
Method: FIGS. 6A and 6B present data showing that Compound Z56 prevents proliferation of pancreatic cancer cells. […] Panc-1, AsPC-1, CFPAC-1, Mia PaCa-2, Capan-1, Capan-2 (Ras-transformed) and BxPC-3 (Ras-wild type) pancreatic cancer cells were treated with either EPE peptide (10 μM; middle bars) or Z56 (3 μM; right bars) or DMSO control (0.1%; left bars) in 1% FCS for 72 hours. […] Panc-1, AsPC-1, BxPC-3 and Mia PaCa-2 cells grown in 1% FCS medium containing either EPE peptide (10 μM), 56 (3 μM), PLX4032 (1 μM), PD184352 (5 μM) or DMSO control (0.1%). The graphs present the kinetics of cell proliferation at the indicated times after the treatment started. Quantification of all viable cells was done by methylene blue and repeated 3 times in triplicates. All results presented as a fold change of the initial cell number and represent averages ±SE.
as §1
Activating mutations in Ras are found in more than 95% of pancreatic cancers where signaling through both Raf and Akt pathway drives cancer progression [Campbell et al., Cancer Res 2007, 67:2098-2106]. However, no effective treatments that target this mutant protein have reached the clinic to date, and pancreatic ductal adenocarcinoma remains an almost universally fatal disease [Bryant et al., Trends Biochem Sci 2014, 39:91-100]. Therefore, treating these pancreatic cancer cells downstream of Ras, without overactivating the Akt pathway, should be at least partially beneficial. The effect of Compound Z56 (and EPE peptide) on cell viability of Ras-transformed (and Ras-wild type) pancreatic cancer cells was determined, using a variety of cell lines.
The effects of Compound Z56 on the viability of pancreatic cancer cell lines at various times after treatment was compared with those of PLX4032 (a B-Raf inhibitor) and PD184352 (a MEK1/2 inhibitor).

SMILES | activity in SAR summary of FIGS. 10A-10C (cell viability) [1] | cell viability (percentage of DMSO control) ([1]; 10 μM, 72 hours, 1% FCS) | other results
CCOC(=O)c1ccc(NC2C=CS(=O)(=O)C2)cc1 (stereo not drawn) [Compound C1] | lower activity (relative to Compound Z2) |  | viability at 10 µM ([1]; 10 μM, 72 hours, 1% FCS): < 40%
O=C(NC1C=CS(=O)(=O)C1)c1ccccc1 (stereo not drawn) [Compound C2] | less active |  | viability at 10 µM ([1]; 10 μM, 72 hours, 1% FCS): < 80%
O=C(CCc1ccccc1)OC1C=CS(=O)(=O)C1 (stereo not drawn) [Compound C3] |  |  | viability at 10 µM ([1]; 10 μM, 72 hours, 1% FCS): < 80%
O=S1(=O)C=CC(O)C1 (stereo not drawn) [Compound C4] |  | did not exhibit significant activity | 
O=S1(=O)CCC(Oc2ccccc2)C1 (stereo not drawn) [Compound C5] |  |  | viability at 10 µM ([1]; 10 μM, 72 hours, 1% FCS): < 80%
O=S1(=O)C=CC2ON=C(c3cc(Cl)cc(Cl)c3)C21 (stereo not drawn) [Compound C6] | inactive | did not exhibit significant activity | 
O=S1(=O)CCC(OCc2ccccc2)C1 (stereo not drawn) [Compound C8] | less active | did not exhibit significant activity | 
Cc1ccc(C(=O)OC2CCS(=O)(=O)C2)cc1 (stereo not drawn) [Compound C11] | inactive | did not exhibit significant activity | 
O=C(Nc1ccccc1)OC1C=CS(=O)(=O)C1 (stereo not drawn) [Compound C12] | less active | did not exhibit significant activity | 
CC(C)OC(=O)c1ccc(NC(=O)CC2C=CS(=O)(=O)C2)cc1 (stereo not drawn) [Compound C14] | lower activity (relative to Compound Z2) | did not exhibit significant activity | 
O=C(OC1CCCS(=O)(=O)C1)c1ccc(F)cc1 (stereo not drawn) [Compound C15] | inactive | did not exhibit significant activity | 
O=C(OC1CCS(=O)(=O)C1)c1ccnc(OCc2ccccc2)c1 (stereo not drawn) [Compound C16] |  | did not exhibit significant activity | 
CS(=O)(=O)CCOC(=O)c1cccc(Br)c1 [Compound C19] | inactive | did not exhibit significant activity | 
Cc1ccccc1OC1CCS(=O)(=O)C1 (stereo not drawn) [Compound C20] | lower activity (relative to Compound Z2) | did not exhibit significant activity | 
Cc1ccc(OC2CCS(=O)(=O)C2)cc1 (stereo not drawn) [Compound C21] | lower activity (relative to Compound Z2) | did not exhibit significant activity | 
O=C(OC1CS(=O)(=O)CC1Br)c1ccccc1 (stereo not drawn) [Compound C22] | far more active than Compound C6 |  | nuclear accumulation of ERK1/2 upon TPA stimulation [2]: inhibited; cell viability at lower concentration ([1]; 72 hours, 1% FCS): at least as potent as Compound Z2; viability at 10 µM ([1]; 10 μM, 72 hours, 1% FCS): < 40%; cell viability, dose response ([1]; 72 hours, 1% FCS): dose dependent manner
O=S1(=O)C=CC2ON=C(c3c(Cl)cccc3Cl)C21 (stereo not drawn) [Compound C23] |  |  | nuclear accumulation of ERK1/2 upon TPA stimulation [2]: inhibited; cell viability at lower concentration ([1]; 72 hours, 1% FCS): at least as potent as Compound Z2; viability at 10 µM ([1]; 10 μM, 72 hours, 1% FCS): < 40%; cell viability, dose response ([1]; 72 hours, 1% FCS): dose dependent manner
O=C(OC1CCCS(=O)(=O)C1)c1ccccc1F (stereo not drawn) [Compound C31] | inactive | did not exhibit significant activity | 
Cn1ccc2c(C(=O)OC3CCS(=O)(=O)C3)cccc21 (stereo not drawn) [Compound C32] |  | did not exhibit significant activity | 
O=S1(=O)C=CC2ON=C(c3cccnc3)C21 (stereo not drawn) [Compound D13] |  |  | anti-viability activity ([1]; 10 μM, 72 hours, 1% FCS): higher activity than did Compound D7
O=C(NOCC1CC1)c1ccc(F)c(F)c1Nc1ccc(I)cc1Cl [PD184352] |  |  | viability, time course ([3]; 5 μM, all tested cell lines (Panc-1, AsPC-1, BxPC-3, Mia PaCa-2)): reduced the viability
CCCS(=O)(=O)Nc1ccc(F)c(C(=O)c2c[nH]c3ncc(-c4ccc(Cl)cc4)cc23)c1F [PLX4032] |  |  | proliferation, time course ([3]; 1 μM, Ras-mutated AsPC-1 cells): to some extent; viability, time course ([3]; 1 μM, other Ras-transformed pancreatic cancer cells (Panc-1, Mia PaCa-2)): not affecting the viability
